Results from ChEMBL document CHEMBL1201862, “PubChem BioAssay data set” (2004).
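Values below derive from 48-hour exposures of cells grown in 96-well plates, with endpoints linearly interpolated between the two concentrations bracketing the appropriate inhibition level. Here, GI50 denotes the concentration required for 50% inhibition of growth.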 Activity calls are given as the source filed them. No stated cut-off is given here; in the data, active = GI50 up to about 1.1 µM and inactive = higher.

Tests used:
Test in all cases: NCI-60 cell line screen, 48 h
NCI-H460 = system: NCI-H460
LOX IMVI = system: LOX IMVI
SK-MEL-5 = system: SK-MEL-5
HCT-15 = system: HCT-15
NCI/ADR-RES = system: NCI/ADR-RES
HT-29 = system: HT-29
NCI-H23 = system: NCI-H23
OVCAR-5 = system: OVCAR-5
SK-MEL-28 = system: SK-MEL-28
COLO 205 = system: COLO 205
SN12C = system: SN12C
UACC-257 = system: UACC-257
SW-620 = system: SW-620
MCF7 = system: MCF7
SNB-19 = system: SNB-19
A549 = system: A549
CAKI-1 = system: CAKI-1
CCRF-CEM = system: CCRF-CEM
RXF 393 = system: RXF 393
ACHN = system: ACHN

Compound	GI50 (NCI-H460)	GI50 (LOX IMVI)	GI50 (SK-MEL-5)	GI50 (HCT-15)	GI50 (NCI/ADR-RES)	GI50 (HT-29)	GI50 (NCI-H23)	GI50 (OVCAR-5)	GI50 (SK-MEL-28)	GI50 (COLO 205)	GI50 (SN12C)	GI50 (UACC-257)	GI50 (SW-620)	GI50 (MCF7)	GI50 (SNB-19)	GI50 (A549)	GI50 (CAKI-1)	GI50 (CCRF-CEM)	GI50 (RXF 393)	GI50 (ACHN)
Cc1c2cnccc2c(C)c2c1c1ccccc1n2CC1CO1 (stereo not drawn)	0.454 µM (active)	0.393 µM (active)	1.1 µM (active)	1.54 µM	0.826 µM (active)	1.72 µM (inactive)	0.422 µM (active)	2.05 µM (inactive)	1.71 µM (inactive)	1.16 µM (inactive)	0.174 µM (active)	1.75 µM (inactive)	0.345 µM (active)	0.0422 µM (active)	2.04 µM (inactive)	1.51 µM (inactive)	1.34 µM (inactive)	0.0389 µM (active)	0.427 µM (active)	–
CCc1c(O)c2c(c(O)c1C(C)=O)C(=O)c1c(cc(O)c(C(=O)O)c1C(=O)O)C2=O	> 100 µM (inactive)	> 100 µM (inactive)	> 100 µM (inactive)	> 100 µM	> 100 µM (inactive)	> 100 µM (inactive)	> 100 µM (inactive)	> 100 µM (inactive)	> 100 µM (inactive)	> 100 µM (inactive)	> 100 µM (inactive)	> 100 µM (inactive)	> 100 µM (inactive)	> 100 µM (inactive)	> 100 µM (inactive)	> 100 µM (inactive)	> 100 µM (inactive)	> 100 µM (inactive)	> 100 µM (inactive)	> 100 µM (inactive)
O=C1C(Br)=CC2([N+](=O)[O-])CCNC3=C(C4=NCCc5c[nH]c(c54)C3=O)C2=C1Br (stereo not drawn)	3.39 µM (inactive)	1.56 µM (inactive)	0.589 µM (active)	0.796 µM	0.128 µM (active)	0.553 µM (active)	1.39 µM (inactive)	1.1 µM (active)	3.26 µM (inactive)	0.0178 µM (active)	1.78 µM (inactive)	0.279 µM (active)	0.0497 µM (active)	0.0562 µM (active)	2.81 µM (inactive)	3 µM (inactive)	1.49 µM (inactive)	0.304 µM (active)	2.39 µM (inactive)	–
CN1CCC(C(O)(c2ccccc2)c2ccc(Br)cc2)CC1 (stereo not drawn)	23.4 µM (inactive)	15.8 µM (inactive)	14.8 µM (inactive)	35.6 µM	34.9 µM (inactive)	20 µM (inactive)	46.9 µM (inactive)	21.2 µM (inactive)	16.7 µM (inactive)	15.3 µM (inactive)	16.9 µM (inactive)	15.4 µM (inactive)	21.4 µM (inactive)	22.6 µM (inactive)	45.2 µM (inactive)	26.4 µM (inactive)	14 µM (inactive)	30.5 µM (inactive)	18.3 µM (inactive)	31.2 µM (inactive)
